The values below are quoted from earlier work in patent US8586092B2 (Xi'an Libang Pharmaceutical Technology Co., Ltd., priority 2009, dated 2013).

By LD50 is commonly meant the dose expected to kill half of the subjects tested.

One data set deals with rat. The following applies: orally administered to rat.
In the next data set the test system is mouse. The following applies: in vivo, sc.

Turning to `O=C(OCc1ccccc1)c1ccccc1` [Benzyl benzoate], the LD50 with rat is 500 mg/kg. As to `C[C@]12CC[C@@H]3c4ccc(O)cc4C[C@@H](CCCCCCCCC[S+]([O-])CCCC(F)(F)C(F)(F)F)[C@H]3[C@@H]1CC[C@@H]2O` (stereo partly drawn) [Fulvestrant, 7-alpha-[9-(4,4,5,5,5-pentafluoropentylsulphinyl)nonyl]estra-1,3,5-(10)-triene-3,17-beta-diol], the aqueous solubility result was “around 10 ng/ml”.

Consider `CCO` [ethanol], for which the median lethal dose (LD50) in the data set with mouse is 8285 mg/kg.
